Measured values: ChEMBL document CHEMBL1155179 (J Med Chem, 2009)

Experiments:
Format in all cases: tissue-based
[1] = target: T1, Synaptic vesicular amine transporter (Rattus norvegicus, UniProt Q01827); experiment: Inhibition of [3H]dopamine uptake at VMAT2 in rat brain synaptic vesicle by liquid scintillation spectroscopy
[2] = target: T1, Synaptic vesicular amine transporter; experiment: Displacement of [3H]DTBZ from VMAT2 dihydrotetrabenazine binding site in rat brain synaptic vesicle by scintillation counting
[3] = target: Synaptic vesicular amine transporter (Rattus norvegicus) (UniProt Q01827); experiment: Ratio of Ki for displacement of [3H]DTBZ from VMAT2 dihydrotetrabenazine binding site in rat brain synaptic vesicle to Ki for inhibition of [3H]dopamine uptake at VMAT2 in rat brain synaptic vesicle
Chain of Synaptic vesicular amine transporter (Rattus norvegicus) (Q01827 whole entry): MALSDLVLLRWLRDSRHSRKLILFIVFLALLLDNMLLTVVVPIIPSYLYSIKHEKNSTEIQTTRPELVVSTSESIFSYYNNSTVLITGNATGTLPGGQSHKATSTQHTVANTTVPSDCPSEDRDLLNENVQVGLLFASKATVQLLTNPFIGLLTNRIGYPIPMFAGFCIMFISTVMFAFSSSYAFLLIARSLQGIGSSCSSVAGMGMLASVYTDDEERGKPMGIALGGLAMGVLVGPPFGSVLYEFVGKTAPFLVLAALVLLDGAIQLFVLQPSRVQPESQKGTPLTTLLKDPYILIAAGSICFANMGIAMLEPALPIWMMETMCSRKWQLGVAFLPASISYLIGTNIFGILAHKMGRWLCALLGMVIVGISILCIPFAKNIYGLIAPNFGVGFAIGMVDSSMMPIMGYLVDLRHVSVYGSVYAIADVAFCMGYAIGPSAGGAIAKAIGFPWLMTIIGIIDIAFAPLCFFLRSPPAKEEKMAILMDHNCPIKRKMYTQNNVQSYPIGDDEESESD

T1 sequence (Q01827 whole entry): as above

| SMILES | Ki [1] [nM] | Ki [2] [nM] | Ratio Ki [3] |
| --- | --- | --- | --- |
| c1ccc(CC[C@@H]2CC[C@H](CCc3ccccc3)N2)cc1 | 29 | 3060 | 106 |
| CN1[C@H](CCc2ccccc2)CC[C@@H]1CCc1ccccc1 | 270 | 8800 | 32.6 |
| OC[C@H](c1ccccc1)N1[C@H](CCc2ccccc2)CC[C@@H]1CCc1ccccc1 | 1290 | 4340 | 3.36 |
| c1ccc(C[C@H]2CC[C@@H](Cc3ccccc3)N2)cc1 | 9.3 | 1640 | 176 |
| c1ccc(CC[C@H]2CCC[C@@H](CCc3ccccc3)N2)cc1 | 23 | – | 100 |
| CN1[C@H](CCCc2ccccc2)CC[C@@H]1CCCc1ccccc1 | 120 | 2780 | 23.2 |
| c1ccc(CC[C@H]2CC[C@H](CCc3ccccc3)N2)cc1 | 35 | 1330 | 38 |
| CN1[C@@H](Cc2ccccc2)CC[C@H]1Cc1ccccc1 | 19 | 2460 | 130 |
| CN1[C@@H](CCc2ccccc2)CC[C@@H]1CCc1ccccc1 | 170 | 14500 | 85 |
| c1ccc(CC[C@@H]2CC[C@@H](CCc3ccccc3)N2)cc1 | 54 | 3400 | 63 |
| CN1[C@H](CCc2ccccc2)CC[C@H]1CCc1ccccc1 | 120 | 3970 | 33.1 |
| c1ccc(CCC[C@@H]2CC[C@H](CCCc3ccccc3)N2)cc1 | 14 | 270 | 19.3 |
| OC[C@@H](c1ccccc1)N1[C@H](CCc2ccccc2)CC[C@@H]1CCc1ccccc1 | 140 | 2750 | 19.6 |
| OC[C@H](c1ccccc1)N1[C@H](CCc2ccccc2)CC[C@H]1CCc1ccccc1 | 1940 | 5050 | 2.6 |
| OC[C@@H](c1ccccc1)N1[C@@H](CCc2ccccc2)CC[C@@H]1CCc1ccccc1 | 270 | 5610 | 20.7 |
